Test results published in patent US11319303B2 (WIGEN BIOMEDICINE TECHNOLOGY (SHANGHAI) CO., LTD., priority 2017, dated 2022).
Where a name gives a salt, the structure may show the parent alone.

Molecular target: LC3B (Homo sapiens, UniProt Q9GZQ8)
Experiment: Fluorescence Polarization (FP) Assay: displacement of FITC-labeled peptide from GST-LC3B
Type: binding
Conditions: Fluorescence Polarization assay; GST-LC3B 180 nM, FITC-labeled peptide 18 nM, 25° C.; read-out: IC50
Method: The compounds of the present invention for regulating the autophagy-related protein LC3B were tested by Fluorescence Polarization (FP) Assay.
Fluorescence Polarization (FP) Assay Test

SMILES | IC50
COc1ccc(C2CC(=O)C(=CO)C(=O)C2)c(OC)c1 (stereo not shown) [Compound 424, 2-(hydroxymethylene)-5-(2,4-dimethoxyphenyl) cyclohexane-1,3-dione] | 3 to 15 µM
N#Cc1ccc(C2CC(=O)C(=CO)C(=O)C2)cc1 (stereo not shown) [Compound 425, 2-(hydroxymethylene)-5-(4-cyanophenyl)cyclo-hexane-1,3-dione] | 15 to 100 µM
O=C1CC(c2ccccc2C(F)(F)F)CC(=O)C1=CO (stereo not shown) [Compound 426, 2-(hydroxymethylene)-5-(2-trifluoromethylphenyl) cyclohexane-1,3-dione] | < 3 µM
O=C1CC(c2cccs2)CC(=O)C1=CO (stereo not shown) [Compound 427, 2-(hydroxymethylene)-5-(2-thiophen)cyclohexane-1,3-dione] | 3 to 15 µM
O=C1CC(c2ccsc2)CC(=O)C1=CO (stereo not shown) [Compound 428, 2-(hydroxymethylene)-5-(3-thiophen)cyclohexane-1,3-dione] | 3 to 15 µM
O=C1CC(c2cccc3[nH]ccc23)CC(=O)C1=CO (stereo not shown) [Compound 429, 2-(hydroxymethylene)-5-(1H-indol-4-yl)cyclohexane-1,3-dione] | < 3 µM
O=C1CC(c2c[nH]c3ccccc23)CC(=O)C1=CO (stereo not shown) [Compound 430, 2-(hydroxymethylene)-5-(1H-indol-3-yl)cyclohexane-1,3-dione] | < 3 µM
O=C1CC(c2ccnc3ccccc23)CC(=O)C1=CO (stereo not shown) [Compound 431, 2-(hydroxymethylene)-5-(4-quinoline)cyclohexane-1,3-dione] | 3 to 15 µM
COc1ccc(Br)c(C2CC(=O)C(=CO)C(=O)C2)c1 (stereo not shown) [Compound 432, 2-(hydroxymethylene)-5-(2-bromo-5-methoxyphenyl)cyclo-hexane-1,3-dione] | < 3 µM
COc1cc(Br)c(C2CC(=O)C(=CO)C(=O)C2)cc1OC (stereo not shown) [Compound 433, 2-(hydroxymethylene)-5-(2-bromo-4,5-dimethoxyphenyl) cyclohexane-1,3-dione] | < 3 µM
O=C1CC(c2ccccc2[N+](=O)[O-])CC(=O)C1=CO (stereo not shown) [Compound 434, 2-(hydroxymethylene)-5-(2-nitrophenyl)cyclo-hexane-1,3-dione] | 3 to 15 µM
O=C1CC(c2cccc([N+](=O)[O-])c2)CC(=O)C1=CO (stereo not shown) [Compound 435, 2-(hydroxymethylene)-5-(3-nitrophenyl)cyclo-hexane-1,3-dione] | 3 to 15 µM
O=C1CC(c2ccc([N+](=O)[O-])cc2)CC(=O)C1=CO (stereo not shown) [Compound 436, 2-(hydroxymethylene)-5-(4-nitrophenyl)cyclo-hexane-1,3-dione] | 3 to 15 µM
O=C1CC(c2ccc(C(F)(F)F)cc2)CC(=O)C1=CO (stereo not shown) [Compound 437, 2-(hydroxymethylene)-5-(4-trifluoromethylphenyl) cyclohexane-1,3-dione] | 3 to 15 µM
O=C1CC(c2ccc(Br)cc2)CC(=O)C1=CO (stereo not shown) [Compound 438, 2-(hydroxymethylene)-5-(4-bromophenyl)cyclo-hexane-1,3-dione] | 3 to 15 µM
O=C1CC(c2cccc(Br)c2)CC(=O)C1=CO (stereo not shown) [Compound 439, 2-(hydroxymethylene)-5-(3-bromophenyl)cyclo-hexane-1,3-dione] | 3 to 15 µM
CSc1ccc(C2CC(=O)C(=CO)C(=O)C2)cc1 (stereo not shown) [Compound 440, 5-(4-methylthiophenyl)-2-(hydroxymethylene) cyclohexane-1,3-dione] | 3 to 15 µM
COc1cccc(OC)c1C1CC(=O)C(=CO)C(=O)C1 (stereo not shown) [Compound 441, 2-(hydroxymethylene)-5-(2,6-dimethoxyphenyl) cyclohexane-1,3-dione] | 15 to 100 µM
O=C1CC(c2ccccc2O)CC(=O)C1=CO (stereo not shown) [Compound 442, 2-(hydroxymethylene)-5-(2-hydroxyphenyl)cyclo-hexane-1,3-dione] | 15 to 100 µM

SMILES | IC50
O=C1CC(c2ccc(O)cc2)CC(=O)C1=CO (stereo not shown) [Compound 443, 2-(hydroxymethylene)-5-(4-hydroxyphenyl)cyclo-hexane-1,3-dione] | 15 to 100 µM
O=C1CC(c2ccccc2)CC(=O)C1=CO (stereo not shown) [Compound 444, 2-(hydroxymethylene)-5-phenylcyclohexane-1,3-dione] | 3 to 15 µM
O=C1CC(CCc2ccc3c(c2)OCO3)CC(=O)C1=CO (stereo not shown) [Compound 445, 2-(hydroxymethylene)-5-(2-(benzo[d] [1,3]dioxo-5-yl)ethyl)-cyclohexane-1,3-dione] | 15 to 100 µM
O=C1CC(c2cccc(F)c2)CC(=O)C1=CO (stereo not shown) [Compound 446, 2-(hydroxymethylene)-5-(3-fluorophenyl)cyclo-hexane-1,3-dione] | 3 to 15 µM
O=C1CC(c2c(C(F)(F)F)ccc(Cl)c2F)CC(=O)C1=CO (stereo not shown) [Compound 447, 2-(hydroxymethylene)-5-((2-fluoro-3-chloro-6-trifluoromethyl)phenyl)cyclohexane-1,3-dione] | < 3 µM
O=C1C=C(c2ccccc2)OC(=O)C1=CO [Compound 448, 3-(hydroxymethylene)-6-phenyl-2H-pyran-2,4(3H)-dione] | 3 to 15 µM
CC(O)=C1C(=O)CC(c2ccccc2)CC1=O (stereo not shown) [Compound 449, 2-(1-hydroxyethylidene)-5-phenylcyclohexane-1,3-dione] | 15 to 100 µM
O=C1CCN(c2ccccc2)C(=O)/C1=C\O [Compound 450, 3-(hydroxymethylene)-N-phenylpiperidine-2,4-dione] | 15 to 100 µM
O=C1CC(c2ccccc2)C(F)C(=O)/C1=C/O (stereo not shown) [Compound 451, 2-(hydroxymethylene)-4-fluoro-5-(phenyl)cyclohexane-1,3-dione] | 3 to 15 µM
O=C1CC(c2ccccc2)C(F)(F)C(=O)/C1=C/O (stereo not shown) [Compound 452, 2-(hydroxymethylene)-4,4-difluoro-5-(phenyl)cyclohexane-1,3-dione] | 3 to 15 µM
O=C1CC(c2cccs2)CC(=O)C1=CO (stereo not shown) [Compound 453, 2-(hydroxy-methylene)-5-(2-thiophen)cyclo-hexane-1,3-dione lithium salt] | 3 to 15 µM
O=C1CC(c2cccs2)CC(=O)C1=CO (stereo not shown) [Compound 455, 2-(hydroxy-methylene)-5-(2-thiophen)cyclo-hexane-1,3-dione potassium salt] | 3 to 15 µM
O=C1CC(c2ccsc2)CC(=O)C1=CO (stereo not shown) [Compound 456, 2-(hydroxy-methylene)-5-(3-thiophen)cyclo-hexane-1,3-dione lithium salt] | 3 to 15 µM
O=C1CC(c2ccsc2)CC(=O)C1=CO (stereo not shown) [Compound 457, 2-(hydroxy-methylene)-5-(3-thiophen)cyclo-hexane-1,3-dione sodium salt] | 3 to 15 µM
O=C1CC(c2ccsc2)CC(=O)C1=CO (stereo not shown) [Compound 458, 2-(hydroxy-methylene)-5-(3-thiophen)cyclo-hexane-1,3-dione potassium salt] | 3 to 15 µM
O=C1CC(c2cccc3[nH]ccc23)CC(=O)C1=CO (stereo not shown) [Compound 459, 2-(hydroxy-methylene)-5-(1H-indol-4-yl)cyclo-hexane-1,3-dione lithium salt] | < 3 µM
O=C1CC(c2cccc3[nH]ccc23)CC(=O)C1=CO (stereo not shown) [Compound 460, 2-(hydroxy-methylene)-5-(1H-indol-4-yl)cyclo-hexane-1,3-dione sodium salt] | < 3 µM
O=C1CC(c2cccc3[nH]ccc23)CC(=O)C1=CO (stereo not shown) [Compound 461, 2-(hydroxy-methylene)-5-(1H-indol-4-yl)cyclo-hexane-1,3-dione potassium salt] | < 3 µM
